These are literature values, as cited in US20080234349A1, “PPAR active compounds” (priority 2005, published 2008).

The target of data set [1] is T1, PPARδ (Homo sapiens, UniProt Q03181).
T1 sequence (Q03181 1-441): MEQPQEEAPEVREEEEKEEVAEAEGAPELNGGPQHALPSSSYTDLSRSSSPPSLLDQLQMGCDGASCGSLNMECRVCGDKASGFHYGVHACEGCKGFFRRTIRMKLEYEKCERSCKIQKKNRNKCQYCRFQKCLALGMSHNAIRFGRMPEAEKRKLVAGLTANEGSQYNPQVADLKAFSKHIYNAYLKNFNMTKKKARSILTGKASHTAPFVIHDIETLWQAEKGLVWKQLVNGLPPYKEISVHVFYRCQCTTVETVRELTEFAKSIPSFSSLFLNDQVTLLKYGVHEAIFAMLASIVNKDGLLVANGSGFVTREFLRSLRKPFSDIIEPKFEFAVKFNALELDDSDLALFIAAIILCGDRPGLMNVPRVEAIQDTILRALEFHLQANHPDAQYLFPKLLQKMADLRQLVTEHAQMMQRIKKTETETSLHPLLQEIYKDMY

In data set [2] the target is T2, murine PPARα (Mus musculus, UniProt P23204).
T2 sequence (P23204 1-468): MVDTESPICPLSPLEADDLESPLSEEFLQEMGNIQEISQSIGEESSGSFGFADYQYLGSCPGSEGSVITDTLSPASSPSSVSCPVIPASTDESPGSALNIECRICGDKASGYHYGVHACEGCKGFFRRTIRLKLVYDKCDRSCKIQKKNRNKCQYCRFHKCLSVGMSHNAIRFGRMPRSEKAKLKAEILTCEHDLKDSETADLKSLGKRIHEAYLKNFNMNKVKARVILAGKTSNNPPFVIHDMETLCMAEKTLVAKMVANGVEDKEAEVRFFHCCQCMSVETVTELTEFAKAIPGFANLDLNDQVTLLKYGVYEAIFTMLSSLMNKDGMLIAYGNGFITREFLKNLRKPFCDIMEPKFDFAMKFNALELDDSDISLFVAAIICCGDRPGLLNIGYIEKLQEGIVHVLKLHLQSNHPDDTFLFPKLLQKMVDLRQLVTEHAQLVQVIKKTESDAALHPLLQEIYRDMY

For data set [3] the following is noted: recent large prospective trial, patients.

Turning to `CCCc1c(OCCCOc2ccc(OCC(=O)O)cc2)ccc(C(C)=O)c1O` [Compound L-165041], the “agonist selectivity for PPARδ over PPARγ” value in data set [1] is given as “approximately 30 fold”. In data set [2], the “activity on murine PPARα” value was “inactive”.

In the case of `Cc1ccc(C)c(OCCCC(C)(C)C(=O)O)c1` [gemfibrozil], in data set [3], the “reduction in cardiovascular events or death” value is 22%.
